Data on 1 compound can be found in US20030204875A1, “Novel agrobacterium-mediated plant transformation method” (priority 1999, published 2003).

The subject of this experiment is Agrobacterium tumefaciens strain C58 (ABI). The procedure:
Disarmed Agrobacterium tumefaciens strain C58 (ABI) harboring binary vector pMON18365 (FIG. 2) was used in this Example. The Agrobacterium strain was pre-induced as described previously.
Three mls of pre-induced Agrobacterium suspension (A660 OD 1.0) was added to a 6-well tissue culture plate. After adding the explants, the plant tissues and Agrobacterium suspension cells were subjected to vacuum infiltration for three hours. After the three hour vacuum infiltration, the Agrobacterium suspension was removed and the plant tissues were placed on semi-solid medium containing 10 ? M AgNO3 (final concentration). All the tissues were incubated for three days in the dark.
All explants were transferred to the medium without the growth inhibiting agent and evaluation of Agrobacterium growth was observed seven days post-transfer.

Take `O=[N+]([O-])[O-].[Ag+]` [AgNO3, silver nitrate]: the “Growth of Agrobacterium cells surrounding explants” value (co-culture medium with 10 μM AgNO3, three days) is reported as “No growth”. In addition, where the note is “seven days post-transfer, after three days on 10 μM AgNO3”, the “Growth of Agrobacterium cells surrounding explants after transfer to medium without the agent” value was “Profuse growth”.
